Laboratory results published in the NIST ThermoML archive (doi:10.1007/s10765-011-1149-x).

Assays:
[1] = 101 kPa, Liquid, Vibrating tube method
[2] = xn = mol fraction of the nth substance listed; settings: 101 kPa, Liquid, Vibrating tube method, x2 = 0

OCCO [1,2-ethanediol]
[1]
Settings | mass density [kg/m3]
276.15 K | 1125.17
277.15 K | 1124.48
283.15 K | 1120.32
293.15 K | 1113.37
303.15 K | 1106.36
313.15 K | 1099.3

OCCO [1,2-ethanediol] + Cc1cc(C)nc(C)c1
[2]
Settings | mass density [kg/m3]
276.15 K | 1125.17
277.15 K | 1124.48
283.15 K | 1120.32
293.15 K | 1113.37
303.15 K | 1106.36
313.15 K | 1099.3

Cc1cc(C)nc(C)c1 [2,4,6-trimethylpyridine]
[1]
Settings | mass density [kg/m3]
276.15 K | 928.45
277.15 K | 927.61
283.15 K | 922.54
288.15 K | 918.32
293.14 K | 914.08
298.15 K | 909.84
303.15 K | 905.58
308.15 K | 901.31
313.15 K | 897.03

CO [methanol]
[1]
Settings | mass density [kg/m3]
276.15 K | 807.18
277.15 K | 806.25
283.15 K | 800.64
288.15 K | 795.96
293.15 K | 791.26
298.15 K | 786.55
303.15 K | 781.83
308.15 K | 777.08
313.14 K | 772.31

CO [methanol] + Cc1cc(C)nc(C)c1
[2]
Settings | mass density [kg/m3]
276.15 K | 807.18
277.15 K | 806.25
283.15 K | 800.64
288.15 K | 795.96
293.15 K | 791.26
298.15 K | 786.55
303.15 K | 781.83
308.15 K | 777.08
313.14 K | 772.31
